Laboratory results reported in PMC10459686, “Preclinical Evaluation of a New Series of Albumin-Binding ^177Lu-Labeled PSMA-Based Low-Molecular-Weight Radiotherapeutics” (Molecules, 2023).

Experiments:
PSMA+ PC3 PIP cells = experiment: Clonogenic survival assay; assay type: cell-based, human; details: 48 h treatment at 37 °C
Procedure: Cells (200–1000) were seeded in 60 mm culture dishes. Each radioligand (^177Lu-L1, ^177Lu-Alb-L2, ^177Lu-Alb-L5) was diluted in a prewarmed medium at different concentrations (0, 0.37, 1.85, 3.7, 18.5, 37, 185, and 370 kBq/mL) and incubated with the cells for 48 h, as we previously reported. The radiolabeled compound was replaced with fresh medium, and cells were incubated for 2 weeks or until colonies had at least 50 cells. The colonies were stained with crystal violet and counted, and the surviving fraction was normalized to the control plating efficiency, as previously described.

patients = system: patients; parameters: method as in PMID 32949253; details: than 177Lu-EB-PSMA-617 and 177Lu-PSMA-ALB-56; clinical studies; cited from earlier work
[1] = system: patients with metastatic castration-resistant prostate cancer; parameters: method as in PMID 34161051, PMID 34385339; details: treatment group of randomized patients; cited from earlier work

With O=C(O)CCC(NC(=O)NC(CCCCN(Cc1ccc(Br)cc1)C(=O)CCCCNC(=O)CN1CCN(CC(=O)O)CCN(CC(=O)O)CCN(CC(=O)O)CC1)C(=O)O)C(=O)O (stereo not shown) [177Lu-L1, metal not drawn] the “Activity to reduce cell survival to 37% (A0)” value (PSMA+ PC3 PIP cells) was 18.5 kBq/mL and the “Concentration of radioactivity for complete cell killing” value (PSMA+ PC3 PIP cells) was 370 kBq/mL.

In the case of O=C([O-])CN1CCN(CC(=O)[O-])CCN(CC(=O)NCC2CCC(C(=O)N[C@@H](Cc3ccc4ccccc4c3)C(=O)NCCCC[C@H](NC(=O)N[C@@H](CCC(=O)O)C(=O)O)C(=O)O)CC2)CCN(CC(=O)[O-])CC1.[177Lu+3] (stereo partly shown) [177Lu-PSMA-617], the “Kidney-absorbed dose, fold lower” value (patients) is given as ~ 4 fold and the Median overall survival [1] is given as 15.3 months.
